Read-outs that look alike come from different tables or passages of the source. Marks after values point to notes of the source that are not given here.
Assays:
[1] = system: MDA-MB-435 breast carcinoma; assay: Anchorage Dependent Growth Monolayer Assay (ADGMA), MDA-MB-435; type: cell-based, human; conditions: 3-day exposure, MTS readout, read-out: IC50 (average±S.D.) MDA-MB-435
Experimental: (§1) As indicated above, all of the compounds of formula I, and their corresponding pharmaceutically acceptable acid addition salts, are anti-tumor agents and are, therefore, useful in inhibiting the growth of various lymphomas, sarcomas, carcinomas, myelomas, and leukemia cell lines.
(§2) The ADGMA compares the number of viable cells following a 3-day exposure to a test compound relative to a number of cells present at the time the test compound was added. […] The absorbance at 490 nm (A490) of the formazan derivative is proportional to the number of viable cells. The IC50 for a test compound is the concentration of compound required to reduce the final cell number to 50% of the final control cell number. If cell proliferation is inhibited, the assay further defines compounds as cytostatic (cell number after 3-day compound incubation >cell number at time of compound addition) or cytotoxic (cell number after 3-day compound incubation <cell number at time of compound addition).
The MDA-MB-435 breast carcinoma line was obtained from the American Type Culture Collection (ATCC) and used between passages 4-20 following thawing. MDA-MB-435 breast carcinoma was maintained and plated in DME/F12 medium containing 10% fetal bovine serum, 15 mM HEPES (pH=7.4), 100 units/mL penicillin, and 100 μg/mL streptomycin.
(§3) Cell lines are trypsinized and counted using a Coulter counter to determine plating densities. Cells are then plated in their respective maintenance media (100 μL/well) in 96 well plates at the following densities: MDA-MB-435, 3,000 cells/well; A549 and HCT-116, 700 cells/well; are PC-3, 2500 cells/well. The number of cells plates as determined in preliminary experiments, results in cell densities of 75-90% of confluency by 4 days after plating. Initial cell densities, assayed one day after plating, are roughly 0.15-0.20 absorbance units greater than the media blank. Ninety-six well plates are seeded on day 0 and the test compounds are added on day 1. A control plate is created for each cell line that receives media only in row A and cells in row B. One day following plating, test compounds are added (in a final volume of 100 μL) to the test plates. Control plates receive 10 μL MTS mixture (prepared fresh on day of addition to cell plates at a ratio of 10 μL of a 0.92 mg/mL solution of PMS to a 190 μL of a 2 mg/mL solution of MTS) and 100 μL media. A490 of control plates is read 4 h after MTS addition to determine initial cell density values for each cell line. Three days after addition of test compound, 10 μL/well of MTS mixture is added to the test plates and A490 is read 4 h later. A490 values for wells containing cells are corrected for media absorbance, then normalized to initial density readings to determine percent net growth. IC50 values are determined from graphs of percent net growth as a function of compound concentration. Percent net growth is calculated as (Cell+Drug A490−Initial A490/Cell+Drug Vehicle A490−Initial A490).

[2] = system: A549 non-small cell lung carcinoma; assay: Anchorage Dependent Growth Monolayer Assay (ADGMA), A549; type: cell-based, human; conditions: 3-day exposure, MTS readout, read-out: IC50 (average±S.D.) A549
Experimental: as §1, §2
(§4) A549, HCT-116 and PC-3 cells were maintained in RPMI 1640 containing 5% FBS, […], 1 nM β-estradiol, 1 nM testosterone, 100 units/mL penicillin and 100 ug/mL streptomycin.
as §3

[3] = system: HCT-116 colon carcinoma; assay: Anchorage Dependent Growth Monolayer Assay (ADGMA), HCT-116; type: cell-based, human; conditions: 3-day exposure, MTS readout, read-out: IC50 (average±S.D.) HCT-116
Experimental: as §1, §2, §4, §3

[4] = system: PC-3 prostate carcinoma; assay: Anchorage Dependent Growth Monolayer Assay (ADGMA), PC-3; type: cell-based, human; conditions: 3-day exposure, MTS readout, read-out: IC50 (average±S.D.) PC-3
Experimental: as §1, §2, §4, §3

[5] = system: MDA-MB-435 tumor xenografts; assay: MDA-MB-435 breast carcinoma xenograft model; type: in vivo, athymic (nu/nu) mice
Experimental: Positive controls are carried out with doxorubicin administered 3 times per week i.v.
The following results were obtained for compounds of Ex.1-Ex.12 tested against MDA-MB-435 tumor xenografts 3×/week for 3 weeks: […]

[6] = system: A549 tumor xenografts
Description: Utilizing this model, one can measure the ability of test compounds to inhibit the growth of human tumor xenografts growing subcutaneously (s.c.) in athymic nude mice. The histologic tumor types employed were MDA-MB-435 breast, A549 non-small cell lung, HCT-116 colon and PC-3 prostate carcinomas.
A549 non-small cell lung carcinoma xenograft model: Briefly, 10 million cells were implanted s.c. into the right flank of athymic (nu/nu) mice, and were allowed to grow until a mass of approximately 120 mm^3 was established. The test compounds are administered three times per week intravenously (i.v.) for three weeks in 5% dextrose, 10%DMSO in water. The test compounds are administered in dose-response fashion in order to evaluate and document the full potential range of activity (efficacy and toxicity) for a given compound. Positive controls are carried out with mitomycin C administered 3 times per week intraperitioneally (i.p.).
Toxicity was monitored by recording average group body weights twice weekly, and by daily observation of general health. Efficacy was monitored by taking measurements of tumor length, width, and depth weekly using digital calipers coupled to automated data collectors. Mean tumor volume (MTV) at initiation of therapy was subtracted from final MTV in order to express the actual tumor growth during treatment (ΔMTV). Anti-tumor activity was expressed as %T/C (ΔMTV of treated group÷ΔMTV of control group×100). Regressions were calculated using the formula: (T/T0−1)×100%, where T is the tumor volume for the treatment group at the end of the experiment, and T0 is the tumor volume at the beginning of the experiment. Statistical significance was evaluated using a one-tailed Student's t-test (p<0.05).

[7] = system: HCT-116 tumor xenografts; assay: HCT-116 colon carcinoma xenograft model; type: in vivo, athymic (nu/nu) mice
Experimental: Positive controls are carried out with 5-fluorouracil administered 1 time per week i.v.

[8] = H2O solubility; type: physicochemical; conditions: water; for Example 1 stated for the solid before preparative hplc
[9] = 2 mg/kg i.v. 3 times per week (positive control)
[10] = 10 μmol/kg i.v. 3×/week for 3 weeks
[11] = 33 μmol/kg i.v. 3×/week for 3 weeks
[12] = 100 μmol/kg i.v. 3×/week for 3 weeks

COc1cccc2c1C(=O)c1c(O)c3c(c(O)c1C2=O)C[C@@](O)(C(=O)CO)C[C@@H]3O[C@H]1C[C@H](N)[C@H](O)[C@H](C)O1 [doxorubicin, reference compound]
IC50 ([1]; Homo sapiens, MDA-MB-435, 72 h): 399 ± 314 nM
IC50 ([2]; Homo sapiens, A549, 72 h): 504 ± 320 nM
IC50 ([3]; Homo sapiens, HCT-116, 72 h): 39 ± 6 nM
IC50 ([4]; Homo sapiens, 72 h): 327 ± 123 nM
% T/C [5, 9]: 42* %
Dead/Total [5, 9]: 0/8

CO[C@@H](C(=O)N[C@H]1CC[C@@H](OC(=O)C2CCCC2)CNC1=O)[C@H](O)[C@@H](O)[C@H](O)/C=C/C(C)(C)C [Ex. 2]
IC50 [1]: 128 ± 47 nM
IC50 [2]: 201 ± 100 nM
IC50 [3]: 120 ± 29 nM
IC50 [4]: 145 ± 53 nM
% T/C [5, 10]: 67%
Dead/Total [5, 10]: 0/8
% T/C [5, 11]: 13* %
Dead/Total [5, 11]: 0/8
% T/C [6, 10]: 58%
Dead/Total [6, 10]: 0/8
Δ MTV [6, 10]: 44 mm^3
% T/C [6, 11]: 37* %
Dead/Total [6, 11]: 0/8
Δ MTV [6, 11]: 28 mm^3
% T/C [6, 12]: 9* %
Dead/Total [6, 12]: 0/7
Δ MTV [6, 12]: 7 mm^3
% T/C [7, 10]: 75%
Dead/Total [7, 10]: 0/8
Δ MTV [7, 10]: 303 mm^3
% T/C [7, 11]: 56* %
Dead/Total [7, 11]: 0/8
Δ MTV [7, 11]: 225 mm^3
% T/C [7, 12]: 25* %
Dead/Total [7, 12]: 0/8
Δ MTV [7, 12]: 102 mm^3
H2O solubility [8]: 18 mg/mL

From US6555533B2, “Use of certain substituted caprolactams in treating tumors” (Novartis AG, priority 1998, dated 2003)
